Results taken from patent US9079895B2, “Morpholino compounds, uses and methods” (University of Dundee, priority 2012, dated 2015).

What was measured:
5HT2c receptor = 5HT2c receptor (Homo sapiens (Human), UniProt P28335); test: Secondary radioligand binding assay, 5HT2c; details: average of at least two experiments
Procedure: (§2) Assay Buffer: Standard Binding Buffer (50 mM Tris-HCl, 10 mM MgCl2, 1 mM EDTA, pH 7.4)
(§3) Membrane Fraction Source: Transiently or stably transfected cell lines (e.g., HEK293, COS, CHO, NIH3T3)
(§4) Radioligand is diluted to five times the assay concentration (see Table 18) in Standard Binding Buffer. Typically, the assay concentration of radioligand is a value between one half the KD and the KD of a particular radioligand at its target. 50 μl aliquots of radioligand are dispensed into the wells of a 96-well plate containing 100 μl of Standard Binding Buffer. Then, duplicate 50 μl aliquots of the test and reference compound dilutions are added.
(§5) The 250 μl reactions are incubated at room temperature and shielded from light (to prevent photolysis of light-sensitive ligands) for 1.5 hours, then harvested by rapid filtration onto Whatman GF/B glass fiber filters pre-soaked with 0.3% polyethyleneimine using a 96-well Brandel harverster. Four rapid 500 μl washes are performed with chilled Standard Binding Buffer to reduce non-specific binding. Filters are placed in 6 ml scintillation tubes and allowed to dry overnight. The next day, 4 ml of EcoScint scintillation cocktail (National Diagnostics) are added to each tube. The tubes are capped, labeled, and counted by liquid scintillation counting. […] The filter mats are dried, then scintillant is melted onto the filters and the radioactivity retained on the filters is counted in a Microbeta scintillation counter.

5HT2a receptor = 5HT2a receptor (Homo sapiens (Human), UniProt P28223); test: Secondary radioligand binding assay, 5HT2a; details: average of at least two experiments
Procedure: as §2, §3, §4, §5

dopamine D2 receptor = dopamine D2 receptor (Homo sapiens (Human), UniProt P14416); test: Functional assay against the dopamine D2 receptor; type: cell-based; details: data not shown
Chain of dopamine D2 receptor (P14416 whole entry, species assumed): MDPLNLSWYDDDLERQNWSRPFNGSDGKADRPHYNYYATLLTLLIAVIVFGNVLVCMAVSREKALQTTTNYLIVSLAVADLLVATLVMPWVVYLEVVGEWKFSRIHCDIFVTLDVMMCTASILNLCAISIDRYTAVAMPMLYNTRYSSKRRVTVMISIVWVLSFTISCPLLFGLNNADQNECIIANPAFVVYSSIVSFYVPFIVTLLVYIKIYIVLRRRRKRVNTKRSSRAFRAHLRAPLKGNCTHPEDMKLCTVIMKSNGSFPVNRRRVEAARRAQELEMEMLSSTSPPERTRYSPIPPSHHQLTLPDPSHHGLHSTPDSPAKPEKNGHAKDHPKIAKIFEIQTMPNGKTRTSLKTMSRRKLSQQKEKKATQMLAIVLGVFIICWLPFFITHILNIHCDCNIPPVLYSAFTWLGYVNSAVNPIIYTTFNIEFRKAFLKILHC
Description: (§1) The detailed experimental protocols for the radioligand and functional receptor assays are available on the NIMH PDSP website at http://pdsp.med.unc.edu/UNC-CH %20Protocol %20Book.pdf.

dopamine D4 receptor = dopamine D4 receptor (Homo sapiens (Human), UniProt P21917); test: Functional assay against the dopamine D4 receptor; type: cell-based; details: data not shown
Chain of dopamine D4 receptor (P21917 whole entry, species assumed): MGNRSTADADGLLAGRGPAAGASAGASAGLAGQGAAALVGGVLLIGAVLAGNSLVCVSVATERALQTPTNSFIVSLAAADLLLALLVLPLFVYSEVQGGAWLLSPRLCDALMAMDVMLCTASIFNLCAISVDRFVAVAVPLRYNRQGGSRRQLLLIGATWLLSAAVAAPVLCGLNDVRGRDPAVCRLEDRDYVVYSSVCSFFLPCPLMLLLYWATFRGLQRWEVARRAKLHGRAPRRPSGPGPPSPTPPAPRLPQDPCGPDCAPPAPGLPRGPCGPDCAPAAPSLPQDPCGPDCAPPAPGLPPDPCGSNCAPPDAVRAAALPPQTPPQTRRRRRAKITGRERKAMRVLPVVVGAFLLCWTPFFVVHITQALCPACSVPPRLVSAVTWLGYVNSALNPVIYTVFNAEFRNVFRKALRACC
Description: as §1

hERG = hERG (Homo sapiens (Human), UniProt Q12809); test: hERG assay (PatchXpress patch clamp); type: cell-based
Chain of hERG (Q12809 whole entry): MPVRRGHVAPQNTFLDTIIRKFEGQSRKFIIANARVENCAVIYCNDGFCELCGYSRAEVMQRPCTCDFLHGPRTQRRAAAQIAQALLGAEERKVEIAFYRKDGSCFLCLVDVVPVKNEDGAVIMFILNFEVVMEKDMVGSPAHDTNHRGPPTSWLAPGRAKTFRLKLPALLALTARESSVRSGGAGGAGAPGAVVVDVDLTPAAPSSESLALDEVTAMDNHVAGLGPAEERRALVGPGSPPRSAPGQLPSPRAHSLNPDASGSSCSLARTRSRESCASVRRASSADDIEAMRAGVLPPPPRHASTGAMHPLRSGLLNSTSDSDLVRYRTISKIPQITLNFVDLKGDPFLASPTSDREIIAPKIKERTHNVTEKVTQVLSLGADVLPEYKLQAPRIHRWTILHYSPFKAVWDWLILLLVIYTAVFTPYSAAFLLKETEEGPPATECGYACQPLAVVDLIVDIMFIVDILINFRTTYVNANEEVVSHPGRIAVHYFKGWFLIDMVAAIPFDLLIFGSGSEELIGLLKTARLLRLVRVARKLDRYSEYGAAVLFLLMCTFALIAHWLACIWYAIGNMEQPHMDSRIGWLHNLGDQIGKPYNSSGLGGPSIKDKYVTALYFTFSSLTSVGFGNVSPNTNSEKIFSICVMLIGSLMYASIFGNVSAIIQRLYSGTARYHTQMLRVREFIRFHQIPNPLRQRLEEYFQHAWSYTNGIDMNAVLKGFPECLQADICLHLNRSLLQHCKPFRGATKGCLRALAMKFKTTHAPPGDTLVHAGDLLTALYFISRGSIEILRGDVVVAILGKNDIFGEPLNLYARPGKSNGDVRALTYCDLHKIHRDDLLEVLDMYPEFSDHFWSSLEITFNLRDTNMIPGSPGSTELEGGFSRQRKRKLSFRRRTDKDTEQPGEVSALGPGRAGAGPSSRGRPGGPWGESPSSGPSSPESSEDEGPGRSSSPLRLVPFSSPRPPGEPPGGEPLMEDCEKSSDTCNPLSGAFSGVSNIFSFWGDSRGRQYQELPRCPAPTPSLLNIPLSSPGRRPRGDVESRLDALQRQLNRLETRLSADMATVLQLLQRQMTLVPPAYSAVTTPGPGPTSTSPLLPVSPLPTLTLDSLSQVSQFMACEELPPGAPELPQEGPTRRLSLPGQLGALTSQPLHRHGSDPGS
Procedure: 2. hERG Assay hERG activity was assayed by the patch clamp method on a PatchXpress platform and by FluxOR T1+ assays.

5HT1b receptor = 5HT1b receptor (Homo sapiens (Human), UniProt P28222); test: Secondary radioligand binding assay, 5HT1b; details: average of at least two experiments
Chain of 5HT1b receptor (P28222 whole entry): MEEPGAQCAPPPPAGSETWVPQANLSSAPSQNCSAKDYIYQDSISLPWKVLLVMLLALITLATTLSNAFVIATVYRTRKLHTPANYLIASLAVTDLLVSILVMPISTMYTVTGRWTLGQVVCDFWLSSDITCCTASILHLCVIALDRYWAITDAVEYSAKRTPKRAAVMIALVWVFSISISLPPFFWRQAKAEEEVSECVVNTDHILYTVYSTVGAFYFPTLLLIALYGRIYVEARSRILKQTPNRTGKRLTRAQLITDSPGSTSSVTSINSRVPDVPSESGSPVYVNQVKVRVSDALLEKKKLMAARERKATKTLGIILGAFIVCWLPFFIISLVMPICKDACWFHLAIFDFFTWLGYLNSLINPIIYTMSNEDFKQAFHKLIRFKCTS
Procedure: as §2, §3, §4
The 250 μl reactions are incubated at room temperature and shielded from light (to prevent photolysis of light-sensitive ligands) for 1.5 hours, then harvested by rapid filtration onto Whatman GF/B glass fiber filters pre-soaked with 0.3% polyethyleneimine using a 96-well Brandel harverster. Four rapid 500 μl washes are performed with chilled Standard Binding Buffer to reduce non-specific binding. Filters are placed in 6 ml scintillation tubes and allowed to dry overnight. […] The tubes are capped, labeled, and counted by liquid scintillation counting. […] The filter mats are dried, then scintillant is melted onto the filters and the radioactivity retained on the filters is counted in a Microbeta scintillation counter. […]

[1] = molecular target: Alpha1D adrenergic receptor (Homo sapiens (Human), UniProt P25100); test: Secondary radioligand binding assay, Alpha1D; details: average of at least two experiments
Chain of Alpha1D adrenergic receptor (P25100 whole entry): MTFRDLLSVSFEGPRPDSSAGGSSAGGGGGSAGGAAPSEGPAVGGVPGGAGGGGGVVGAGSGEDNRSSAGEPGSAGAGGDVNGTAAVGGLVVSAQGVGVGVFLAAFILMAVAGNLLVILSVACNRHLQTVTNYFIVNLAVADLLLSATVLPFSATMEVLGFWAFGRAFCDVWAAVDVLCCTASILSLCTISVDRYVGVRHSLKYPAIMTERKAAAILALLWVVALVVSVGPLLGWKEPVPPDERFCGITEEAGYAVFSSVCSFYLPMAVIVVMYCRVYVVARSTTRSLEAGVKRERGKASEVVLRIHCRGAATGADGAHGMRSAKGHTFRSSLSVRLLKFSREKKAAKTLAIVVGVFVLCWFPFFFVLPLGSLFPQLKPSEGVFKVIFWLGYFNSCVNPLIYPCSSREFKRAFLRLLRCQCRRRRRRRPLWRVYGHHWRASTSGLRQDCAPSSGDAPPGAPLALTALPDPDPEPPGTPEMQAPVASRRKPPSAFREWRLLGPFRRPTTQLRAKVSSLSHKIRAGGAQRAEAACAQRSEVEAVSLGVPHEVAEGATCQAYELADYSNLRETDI
Procedure: 1. Secondary Radioligand Binding Assays
as §1
Raw data (dpm) representing total radioligand binding (i.e. specific+non-specific binding) are plotted as a function of the logarithm of the molar concentration of the competitor (i.e. test or reference compound).
The method is carried out in the manner described for the serotonin receptor assay above, except where described below. Eleven dilutions (5× assay concentration) of the test and reference (see Table 20) compounds are prepared in the appropriate buffer by serial dilution, as previously described. Radioligand is diluted to five times the assay concentration (see Table 21) in the appropriate buffer.
The 250 μl reactions are incubated at room temperature and shielded from light (to prevent photolysis of light-sensitive ligands) for 1 hour (for α1 receptors, 40 min for α2 receptors, and 1.5 hours for β receptors), then harvested by rapid filtration onto Whatman GF/B glass fiber filters pre-soaked with 0.3% polyethyleneimine using a 96-well Brandel harverster. Four rapid 500-μl washes are performed with chilled distilled water (for α1 and β receptors) or 0.1% polyethyleneimine (for α2 receptors) to reduce non-specific binding. Filters are placed in 6 ml scintillation tubes and allowed to dry overnight and the samples are treated to obtain data as described above.

[2] = Metabolic stability assay (in vitro), mouse hepatic microsomes; type: in vitro ADME; details: mouse liver microsomes, 0.5 μM test compound
Procedure: 3. Metabolic Stability Assay (In Vitro)
Metabolic stability was assessed, generating the in vitro intrinsic clearance (Cli) following incubation of test compound with mouse hepatic microsomes. The assay was performed as previously described (Ruda et al. (2010), “Aryl Phosphoramidates of 5-phosho erythronohydroxamic acid, a new class of potent trypanocidal agents”, J. Med. Chem. 53, pp 6071-6078).
Briefly, each test compound (0.5 μM) was incubated with pooled female mouse liver microsomes (Tebu-Bio, UK; 0.5 mg/ml 50 mM potassium phosphate buffer, pH7.4) and the reaction started with addition of excess NADPH (8 mg/ml 50 mM potassium phosphate buffer, pH7.4) Immediately, at time zero, then at 3, 6, 9, 15 and 30 minutes an aliquot (50 μl) of the incubation mixture was removed and mixed with acetonitrile (100 μl) to stop the reaction. Internal standard was added to all samples. […]
XLfit (IDBS, UK) was used to calculate the exponential decay and consequently the rate constant (k) from the ratio of peak area of test compound to internal standard at each timepoint. The rate of intrinsic clearance (CLi) of each compound was then calculated using the following equation (1): CLi(ml/min/g liver)=k×V×Microsomal protein yield (1) where V (ml/mg protein) is the incubation volume/mg protein added and microsomal protein yield is taken as 52.5 mg protein/g liver. […]

Chain of 5HT2c receptor (P28335 33-458): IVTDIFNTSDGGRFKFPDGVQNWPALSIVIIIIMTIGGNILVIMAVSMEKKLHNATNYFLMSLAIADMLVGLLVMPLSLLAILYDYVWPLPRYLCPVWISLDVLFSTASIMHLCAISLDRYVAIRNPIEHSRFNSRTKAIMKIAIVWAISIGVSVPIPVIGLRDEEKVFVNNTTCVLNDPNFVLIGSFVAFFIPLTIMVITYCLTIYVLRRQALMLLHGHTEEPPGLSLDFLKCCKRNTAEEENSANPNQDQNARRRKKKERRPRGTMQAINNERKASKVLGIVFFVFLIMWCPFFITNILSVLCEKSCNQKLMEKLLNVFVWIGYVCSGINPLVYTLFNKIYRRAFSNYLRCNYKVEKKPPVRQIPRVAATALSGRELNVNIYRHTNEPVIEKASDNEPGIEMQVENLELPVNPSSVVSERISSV
Chain of 5HT2a receptor (P28223 whole entry): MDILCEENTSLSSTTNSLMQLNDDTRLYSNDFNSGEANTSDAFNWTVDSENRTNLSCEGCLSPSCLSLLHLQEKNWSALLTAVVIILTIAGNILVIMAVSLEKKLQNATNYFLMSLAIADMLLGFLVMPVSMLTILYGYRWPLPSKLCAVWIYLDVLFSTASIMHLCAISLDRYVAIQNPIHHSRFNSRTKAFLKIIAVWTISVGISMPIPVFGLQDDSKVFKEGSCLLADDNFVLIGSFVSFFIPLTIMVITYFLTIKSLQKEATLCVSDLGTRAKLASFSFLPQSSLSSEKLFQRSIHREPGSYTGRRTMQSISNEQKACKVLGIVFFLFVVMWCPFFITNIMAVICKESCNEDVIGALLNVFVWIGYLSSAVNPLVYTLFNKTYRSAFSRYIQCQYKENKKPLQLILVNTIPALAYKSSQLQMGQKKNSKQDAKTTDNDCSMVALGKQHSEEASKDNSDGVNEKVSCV

c1ccc(OC[C@@H]2CN(CCN3CCc4ccccc43)CCO2)cc1 [Compound 19s, (S)-4-(2-(Indolin-1-yl)ethyl)-2-(phenoxymethyl)morpholine]
Ki (5HT2c receptor): 6.74 µM
Ki (5HT2a receptor): 0.817 µM

O=C(CN1CCO[C@@H](COc2cccnc2)C1)N1CCc2ccccc21 [Compound 20r, (R)-1-(Indolin-1-yl)-2-(2-((pyridin-3-yloxy)methyl)morpholino)ethanone]
Ki (5HT2a receptor): 2.66 µM

c1cncc(OC[C@H]2CN(CCN3CCc4ccccc43)CCO2)c1 [Compound 21r, (R)-4-(2-(Indolin-1-yl)ethyl)-2-((pyridin-3-yloxy)methyl)morpholine]
Ki (5HT2a receptor): 3.58 µM

c1cncc(OC[C@@H]2CN(CCN3CCc4ccccc43)CCO2)c1 [Compound 21s, (S)-4-(2-(Indolin-1-yl)ethyl)-2-((pyridin-3-yloxy)methyl)morpholine]
function at the dopamine D2 receptor (dopamine D2 receptor): inverse agonists
Ki (5HT2a receptor): 3.54 µM
function at the dopamine D4 receptor (dopamine D4 receptor): inverse agonists
EC50 (hERG; read-out: hERG inhibition pEC50 (converted)): 1.51 µM

O=C(CN1CCO[C@@H](COc2cccc(Cl)c2)C1)N1CCc2ccccc21 [Compound 22r, (R)-2-(2-((3-chlorophenoxy)methyl)morpholino)-1-(indolin-1-yl)ethanone]
function at the dopamine D2 receptor (dopamine D2 receptor): inverse agonists
Ki (5HT2a receptor): 2.07 µM
function at the dopamine D4 receptor (dopamine D4 receptor): inverse agonists

O=C(CN1CCO[C@H](COc2cccc(Cl)c2)C1)N1CCc2ccccc21 [Compound 22s, (S)-2-(2-((3-Chlorophenoxy)methyl)morpholino)-1-(indolin-1-yl)ethanone]
Ki (5HT1b receptor): 7.77 µM
Ki (5HT2a receptor): 2.72 µM

Clc1cccc(OC[C@H]2CN(CCN3CCc4ccccc43)CCO2)c1 [Compound 23r, (R)-2-((3-Chlorophenoxy)methyl)-4-(2-(indolin-1-yl)ethyl)morpholine]
Ki (5HT2a receptor): 2.67 µM

Clc1cccc(OC[C@@H]2CN(CCN3CCc4ccccc43)CCO2)c1 [Compound 23s, (S)-2-((3-chlorophenoxy)methyl)-4-(2-(indolin-1-yl)ethyl)morpholine]
Ki (5HT2c receptor): 3.39 µM
Ki (5HT2a receptor): 1.28 µM
Ki [1]: 4.18 µM

COc1cccc(OC[C@@H]2CN(CC(=O)N3CCc4ccccc43)CCO2)c1 [Compound 24s, (S)-1-(Indolin-1-yl)-2-(2-((3-methoxyphenoxy)methyl)morpholino)ethanone]
Ki (5HT1b receptor): 4.83 µM
Ki (5HT2a receptor): 1.94 µM

COc1cccc(OC[C@@H]2CN(CCN3CCc4ccccc43)CCO2)c1 [Compound 25s, (S)-4-(2-(Indolin-1-yl)ethyl)-2-((3-methoxyphenoxy)methyl)morpholine]
Ki (5HT2c receptor): 3.76 µM
Ki (5HT2a receptor): 1.4 µM

Clc1cncc(OC[C@@H]2CN(CCN3CCc4ccccc43)CCO2)c1 [Compound 27s, (S)-2-(((5-Chloropyridin-3-yl)oxy)methyl)-4-(2-(indolin-1-yl)ethyl)morpholine]
mouse hepatic microsomal Cli (intrinsic clearance) [2]: 25 mL/min/g
hERG inhibition pEC50 (hERG): 5.51+/−0.13

Cc1ccc(OC[C@H]2CN(CCN3CCc4ccccc43)CCO2)cn1 [Compound 28r, (R)-4-(2-(Indolin-1-yl)ethyl)-2-(((6-methylpyridin-3-yl)oxy)methyl)morpholine]
Ki (5HT2a receptor): 1.48 µM

Cc1ccnc(C)c1OC[C@H]1CN(CCN2CCc3ccccc32)CCO1 [Compound 29r, (R)-2-(((2,4-Dimethylpyridin-3-yl)oxy)methyl)-4-(2-(indolin-1-yl)ethyl)morpholine]
Ki (5HT2a receptor): > 10 µM

Cc1ncccc1OC[C@@H]1CN(CC(=O)N2c3ccccc3C[C@H]2C)CCO1 [Compound 61]
Ki [1]: > 10 µM

CC1Cc2ccccc2N1C(=O)CN1CCO[C@H](COc2cccc(Cl)c2)C1 (some centres unmarked) [Compound 64]
Ki (5HT2a receptor): 4.54 µM
Ki [1]: > 10 µM

CC1Cc2ccccc2N1C(=O)CN1CCO[C@@H](COc2cccc(Cl)c2)C1 (some centres unmarked) [Compound 65]
Ki (5HT2a receptor): 1.81 µM
Ki [1]: > 10 µM

Cc1ccccc1OC[C@H]1CN(CC(=O)N2c3ccccc3CC2C)CCO1 (some centres unmarked) [Compound 66]
Ki [1]: > 10 µM

Cc1ccnc(OC[C@H]2CN(CC(=O)N3c4ccccc4CC3C)CCO2)c1 (some centres unmarked) [Compound 70]
Ki (5HT2c receptor): 6.37 µM
